Data on five compounds can be found in paper PMC13227213, “Design of strictly orthogonal biosensors for maximizing renewable biofuel overproduction” (Journal of Advanced Research, 2025).

For series [1], the system named is E. coli MG1655. Kind of series: Tolerance of wild-type MG1655 to pentanols (OD600). Here is the method:
To assess the tolerance of wild-type MG1655 to n-pentanol or isopentanol, the single colony of wild-type MG1655 was inoculated into 3 mL LB medium and cultured at 37 °C for 8–10 h to obtain the seed culture. 50 µL of the seed culture was transferred to 5 mL LB medium adding 0–100 mM n-pentanol or isopentanol and grown at 37 °C with 220 rpm for 12 h. A microplate reader (BioTek Cytation 3) was used to detect the OD600 values.

The target in series [2] is T1, BmoR WT (fusion with sfGFP) (Thauera butanivorans, UniProt A7MAQ9).
T1 construct: SUMO-BmoR-TEV-sfGFP-His fusion, E. coli BL21(DE3) lysate supernatant
T1 sequence (A7MAQ9 1-669): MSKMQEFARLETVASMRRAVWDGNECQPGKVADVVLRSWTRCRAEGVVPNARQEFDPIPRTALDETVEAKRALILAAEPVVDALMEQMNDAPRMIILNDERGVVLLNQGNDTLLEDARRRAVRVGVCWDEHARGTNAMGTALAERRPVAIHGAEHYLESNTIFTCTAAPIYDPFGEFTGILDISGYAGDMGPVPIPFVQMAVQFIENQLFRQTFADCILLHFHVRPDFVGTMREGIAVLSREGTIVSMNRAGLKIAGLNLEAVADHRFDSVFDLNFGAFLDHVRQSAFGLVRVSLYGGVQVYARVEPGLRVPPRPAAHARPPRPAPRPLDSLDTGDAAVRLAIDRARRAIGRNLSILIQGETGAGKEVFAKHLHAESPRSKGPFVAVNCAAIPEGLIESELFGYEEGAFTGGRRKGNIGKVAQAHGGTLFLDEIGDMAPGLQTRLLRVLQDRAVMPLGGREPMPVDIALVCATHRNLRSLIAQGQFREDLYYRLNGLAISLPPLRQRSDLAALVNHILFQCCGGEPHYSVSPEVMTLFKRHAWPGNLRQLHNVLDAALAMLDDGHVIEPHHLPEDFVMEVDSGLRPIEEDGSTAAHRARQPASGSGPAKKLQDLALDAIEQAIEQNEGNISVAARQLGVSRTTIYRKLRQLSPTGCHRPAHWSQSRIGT
In words: MicroScale Thermophoresis of sfGFP-fused BmoR in E. coli BL21(DE3) lysate supernatant, 16-point ligand dilution in assay buffer with 1 % DMSO, incubated at 37 °C for 15 min. The format is binding. Particulars: n = 3. Here is the method: (§1) Plasmids pWT-SUMO-BmoR-TEV-sfGFP-His, pWT-SUMO-BmoR^M94V/A117T/F163Y/F272L-TEV-sfGFP-His, and pWT-SUMO-BmoR^M94V/W128R/F272L-TEV-sfGFP-His were individually transformed into E. coli BL21(DE3). […] Subsequently, 100 µL of the seed culture was transferred to 100 mL LB medium and grown at 37 °C until the OD600 value reached 0.8. 0.1 mM IPTG was added into the culture, and the culture was incubated at 16 °C, 170 rpm for 12–18 h. 50 mL centrifuge tubes were used to centrifuge the culture at 5,000 rpm for 15 min to collect the cell pellets. The pellets were then resuspended in 15 mL of the binding buffer, and the cells were disrupted using the ultrasonic cell crusher. The mixture was then centrifuged at 10,000 rpm for 30 min to collect the supernatant. The Kd values of the wild-type BmoR and the mutants towards four SMs were measured by the MicroScale Thermophoresis (MST, Nanotemper) from Wuhan Bio-lab Biotechnology Co., Ltd.
(§2) A 10 µL aliquot of the supernatant was diluted three folds with the assay buffer. The MST sample chamber was opened, and the tray was removed. The diluted protein sample was aspirated using a capillary and placed in the corresponding slot of the tray. The information of the protein samples and assay bugger was input, and the type of capillary was selected. The excitation power was set to “Auto”, and MST power was set to “High”. The concentration of the samples was adjusted using the assay buffer to 1/3 for BmoR^WT, BmoR^M94V/A117T/F163Y/F272L and BmoR^M94V/W128R/F272L. The samples were diluted to 100 µL/2000 µM using the assay buffer. Two eight-well strips were prepared and labeled from 1st to 16th. 10 µL of the assay buffer (1 % DMSO) was added into the 2nd-16th tubes, while 20 µL of the prepared sample was added to the 1st tube. 10 µL from the 1st tube was sequentially diluted into the 2nd-16th tubes. Subsequently, 10 µL of the lysate was added to each tube and mixed thoroughly. The mixed samples were incubated at 37 °C for 15 min before aspirating with a capillary to load into the sample tray. The software was started to begin the experiment.
A general note: Microscale thermophoresis detects binding through changes in fluorescence in a small temperature gradient.

Series [3] concerns the target T2, BmoR M94V/A117T/F163Y/F272L (fusion with sfGFP) (Thauera butanivorans, UniProt A7MAQ9, A117T/F163Y/F272L/M94V).
T2 construct: SUMO-BmoR-TEV-sfGFP-His fusion, E. coli BL21(DE3) lysate supernatant
The description is as above. The class given is binding. The following applies: n = 3. Here is the method: as §1, §2

In series [4] the target is T3, BmoR A117T/F163Y (Thauera butanivorans, UniProt A7MAQ9, A117T/F163Y).
T3 construct: full-length BmoR, biosensor plasmid pWT-A117T/F163Y (PbmoR-bmoR; Pbmo-gfp)
In words: cell-based. More on the design: species or system E. coli XL10-Gold. Particulars: n = 3; read-out: Apparent Km. Here is the method: (§3) The response values of the above colonies containing various BmoR mutants to n-pentanol, isopentanol, n-butanol or isobutanol were tested. The single colonies were pre-inoculated into 5 mL LB medium with 50 μg/mL carbenicillin and then cultured at 37 °C overnight. […] The excitation and emission wavelengths were set as 470 and 510 nm, respectively. The fluorescence values were normalized as the GFP/OD600 values. Besides, 1 mL of the culture was centrifuged at 5,000 rpm for 5 min. The supernatant was discarded, and the sediment was then resuspended in 2 mL of the physiological saline. 5 μL of the culture was spotted onto glass slides for fluorescence microscopy (UOP 2100). Fifteen colonies which only responded to 10 mM n-pentanol or isopentanol were screened out. The bmoRs in the 15 colonies were amplified and sequenced to identify the mutation sites. Finally, the bmoRs in the five colonies were mutated.
The OD600 values needed to be subtracted from the OD600 value of the blank LB culture. The excitation and emission wavelengths were set as 470 and 510 nm, respectively. The fluorescence values were normalized as the GFP/OD600 values. Besides, the GFP/OD600 values of the strain containing the plasmid pYH7 was regarded as the background fluorescence to be subtracted. Apparent Km values were estimated with Prism 9.5.0 through non-linear regression of the Michaelis-Menten equation. […]

Series [5] concerns the target T4, BmoR WT (Thauera butanivorans, UniProt A7MAQ9).
T4 construct: full-length BmoR, expressed from biosensor plasmid (PbmoR-bmoR; Pbmo-gfp) in E. coli; hexamer
T4 sequence (A7MAQ9 1-669): T1 sequence (A7MAQ9 1-669)
In words: Whole-cell BmoR biosensor dose-response (GFP/OD600, Pbmo-gfp reporter) in 96-deep-well plates with 0-60 mM pentanols or 0-100 mM butanols, LB medium at 30 °C, fitted to the Michaelis-Menten equation. The format is cell-based, E. coli XL10-Gold. The following applies: n = 3; read-out: Apparent Km. On the procedure: as §3
(§4) The OD600 values needed to be subtracted from the OD600 value of the blank LB culture. The excitation and emission wavelengths were set as 470 and 510 nm, respectively. The fluorescence values were normalized as the GFP/OD600 values. Besides, the GFP/OD600 values of the strain containing the plasmid pYH7 was regarded as the background fluorescence to be subtracted. Apparent Km values were estimated with Prism 9.5.0 through non-linear regression of the Michaelis-Menten equation. Finally, one or two effective mutants with orthogonal response towards n-pentanol or isopentanol were obtained.

For series [6], the system named is Δ33. Particulars: 40 mM. On the procedure:
(§5) A library of E. coli MG1655-derived strains with different genomic large-fragment deletions ranging from 14 to 143 kb was constructed and stored. To screen pentanol-tolerant strains, the strains from the library were inoculated into 3 mL LB medium and cultured at 37 °C for 8–10 h to obtain seed cultures. Subsequently, 50 µL of the seed culture was transferred to 5 mL LB medium in the presence of 20 mM n-pentanol or isopentanol and grown at 37 °C with 220 rpm for 12 h. A microplate reader (BioTek Cytation 3) was used to detect the OD600 values.

For series [7], the system named is Δ29. Particulars: equivalent isopentanol stress (40 mM). Here is the method:
as §5

Series [8] addresses T5, BmoR M94V/W128R/F272L (fusion with sfGFP) (Thauera butanivorans, UniProt A7MAQ9, F272L/M94V/W128R).
T5 construct: SUMO-BmoR-TEV-sfGFP-His fusion, E. coli BL21(DE3) lysate supernatant
Kind of series: MicroScale Thermophoresis of sfGFP-fused BmoR in E. coli BL21(DE3) lysate supernatant, 16-point ligand dilution in assay buffer with 1 % DMSO, incubated at 37 °C for 15 min. The class given is binding. Particulars: n = 3. On the procedure: as §1, §2

For series [9], the target named is T6, BmoR W128R (Thauera butanivorans, UniProt A7MAQ9, W128R).
T6 construct: full-length BmoR, biosensor plasmid pWT-W128R (PbmoR-bmoR; Pbmo-gfp)
In words: Whole-cell BmoR biosensor dose-response (GFP/OD600, Pbmo-gfp reporter) in 96-deep-well plates with 0-60 mM pentanols or 0-100 mM butanols, LB medium at 30 °C, fitted to the Michaelis-Menten equation. The class given is cell-based, E. coli XL10-Gold. Particulars: n = 3; read-out: Apparent Km. Here is the method:
as §3, §4

T3 sequence (A7MAQ9 entry or part of it A117T/F163Y): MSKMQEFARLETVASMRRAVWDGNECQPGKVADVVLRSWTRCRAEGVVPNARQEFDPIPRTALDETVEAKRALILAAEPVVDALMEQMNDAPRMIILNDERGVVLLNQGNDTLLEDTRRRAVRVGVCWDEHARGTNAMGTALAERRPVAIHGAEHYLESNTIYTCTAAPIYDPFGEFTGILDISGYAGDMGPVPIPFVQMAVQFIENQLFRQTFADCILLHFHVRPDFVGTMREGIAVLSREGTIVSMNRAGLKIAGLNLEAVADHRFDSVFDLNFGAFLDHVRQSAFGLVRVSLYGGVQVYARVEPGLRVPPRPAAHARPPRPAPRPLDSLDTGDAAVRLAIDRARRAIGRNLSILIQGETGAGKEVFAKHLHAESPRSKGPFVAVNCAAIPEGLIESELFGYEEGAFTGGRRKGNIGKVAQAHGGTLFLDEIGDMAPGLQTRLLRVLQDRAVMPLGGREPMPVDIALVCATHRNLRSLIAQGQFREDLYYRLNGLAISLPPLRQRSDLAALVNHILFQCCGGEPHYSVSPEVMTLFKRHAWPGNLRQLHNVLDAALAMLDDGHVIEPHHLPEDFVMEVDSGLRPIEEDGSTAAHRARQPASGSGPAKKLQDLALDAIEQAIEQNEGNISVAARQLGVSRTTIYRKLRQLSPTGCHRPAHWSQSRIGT
T6 sequence (A7MAQ9 entry or part of it W128R): as the sequence (A7MAQ9 entry or part of it A117T/F163Y) above, with T117A, W128R, Y163F counted along it
T2 sequence (A7MAQ9 entry or part of it M94V/A117T/F163Y/F272L): as the sequence (A7MAQ9 entry or part of it A117T/F163Y) above, with M94V, F272L counted along it
T5 sequence (A7MAQ9 entry or part of it M94V/W128R/F272L): as the sequence (A7MAQ9 entry or part of it A117T/F163Y) above, with M94V, T117A, W128R, Y163F, F272L counted along it

Regarding `CCCCCO` [n-pentanol], the “fold reduction of OD600” value in series [1] (20 mM) is 2.67 fold. Besides, the “OD600 of wild-type MG1655” value in [1] (20 mM, 12 h) is listed as 0.420 ± 0.032. The “growth of wild-type MG1655 (in words)” value in [1] (60 mM) is on record as “failing to grow”.
Consider `CCCCCO` [n-Pentanol, 1-pentanol], for which the Kd (usually the constant that tells how readily two partners part at equilibrium) was determined as 106 nM in [2] and 0.322 mM in series [3]. Besides, the results for the EC50 in [4] and in series [5] were 59.5 mM and 5.09 mM, respectively.
For the compound `CC(C)CCO` [isopentanol], in series [6], the “fold increase of OD600 / biomass compared to the wild type” value came out at 1.34 fold. In addition, the “fold higher biomass accumulation than the wild type” value in [7] came out at 1.58 fold.
Take `CC(C)CCO` [Isopentanol, 3-methyl-1-butanol]: the Kd in series [2] worked out at 93.8 nM; in [8] it was 26.1 nM. Moreover, the EC50 in series [5] came to 3.99 mM; in series [9], 58.2 mM.
On to `CC(C)CO` [Isobutanol, 2-methyl-1-propanol], for which binding in series [2] was put at a Kd of 11800 nM. The EC50 is 22.3 mM in series [4], 8.75 mM in [5] and 63.3 mM in [9].
